# Entries after “also recorded” stand apart in the source; their conditions may differ. Where a SMILES comes first, the peptide text is derived from it. [ ]: non-standard residue; d: D form.
# Legend:
# [1] = tested on: PCNA and p21 interaction; experiment: PCNA and p21 interaction in vitro; format: binding; settings: data not shown
# [2] = tested on: panel of NB cell lines; format: cell-based, human; settings: 72 h
# Procedure: The human NB cell lines, SK-N-DZ, SK-N-BE(2)c, SK-N-AS, SK-N-SH, and SK-N-FI were obtained from the American Type Culture Collection (Rockville, MD). Cells were maintained in DMEM with 10% fetal bovine serum (FBS), 100 units/ml penicillin, and 100 µg/ml streptomycin in the presence of 5% CO2 at 37°C. Human PBMCs from a healthy donor were purchased from Sanguine BioSciences (Valencia, CA) and grown in RPMI1640 with10% FBS, 100 units/ml penicillin, 100 µg/ml streptomycin, and 10 ng/ml IL-2 in the presence of 5% CO2 at 37°C. Human embryonic progenitor cell line 7SM0032 was acquired from Millipore (Billerica, MA) and grown in the hEPM-1 Media Kit purchased from the same company.
# (§1) To measure cell growth, cells were seeded at 3×10^4/ml. After being allowed to attach overnight, cells were treated with various concentrations of the peptides for 72 h. Cell growth was measured by the CellTitor-Glo assay (Promega, Madison, WI) according to manufacturer's instruction. To measure apoptosis, cells were seeded at 1×10^5/ml onto a chamber slide. Once attached, cells were treated with the peptides for 48 h. Cells were fixed and analyzed by a TUNEL assay using the TMR red in situ cell death detection kit (Roche Diagnostics, Indianapolis, IN).
# [3] = tested on: breast, lung, and pancreatic cancer cell lines; experiment: Toxicity to breast, lung, and pancreatic cancer cell lines (data not shown); format: cell-based; settings: in comparison with non-malignant cell lines of respective tissue origins
# [4] = tested on: PCNA and FEN1 co-localization in SK-N-AS NB cells; experiment: PCNA/FEN1 co-localization, immunofluorescence; format: cell-based, human; settings: synchronized, 30 µM peptide 6 h after mimosine release
# Procedure: (§2) Cells were seeded at 1×10^5/ml onto a chamber slide and were allowed to attach overnight. To analyze the interaction of PCNA with FEN1, LIGI, or Pol ä, we first synchronize cells at the G1/S boundary. The synchronization is achieved by starving cells in medium containing 0.25% FBS for 24 h. Cells were further cultured in the complete medium containing 400 µM of mimosine for 24 h. To release cells into S phase, cells were washed and incubated in mimosine-free medium containing 30 µM R9-caPep or R9-srbPep for 6 h. We pre-determined that the majority of cells were in the S-phase 6 h after mimosine was removed (data not shown). Cells were fixed in ice-cold methanol:acetone (50%:50%) for 10 min or in 4% paraformaldehyde for 20 min at room temperature. Cells were incubated with a goat polyclonal anti-PCNA antibody (Santa Cruz) and a mouse monoclonal anti-FEN1 antibody (Santa Cruz), a mouse anti-POLD3 antibody (Sigma, St. Louis, MO), or a mouse anti-LIGI antibody (Abcam, Cambridge, MA) for 1 h at room temperature. After being washed with PBS, cells were incubated with Alexa Fluor 488 conjugated anti-mouse IgG and Alexa Fluor 555 conjugated anti-goat IgG antibodies (Invitrogen, Grand Island, NY) for 1 h. Cells were mounted in Vectashield with DAPI (Vector Labs, Burlingame, CA) and visualized by a confocal microscope.
# [5] = tested on: synchronized cells; experiment: Cell cycle analysis of synchronized cells within 6 h (data not shown); format: cell-based; settings: 6 h after mimosine release
# Procedure: (§3) Cells were seeded at 1×10^5/ml. Once attached, cells were treated with or without R9-caPep for 48 hours. Cells were fixed in 60% ethanol and stained with propidium iodide (PI). The cellular PI fluorescence intensity was determined by flow cytometry. The flow cytometry data were analyzed by the FlowJo program to model various cell populations.
# as §2, with “After being washed with PBS, cells were incubated with Alexa Fluor 488 conjugated anti-mouse IgG and Alexa Fluor 555 conjugated anti-goat IgG antibodies (Invitrogen, Grand Island, NY) for 1 h. Cells were mounted in Vectashield with DAPI (Vector Labs, Burlingame, CA) and visualized by a confocal microscope.” left out
# [6] = tested on: intracellular LIGI or FEN1 level; experiment: Western blot of intracellular LIGI or FEN1 level (data not shown); format: cell-based
# [7] = tested on: non-malignant 7SM0032 cells; experiment: Cell cycle analysis by PI flow cytometry, 7SM0032; format: cell-based, human; settings: 7SM0032, same treatment (40 µM, 48 h), vs NB cells
# Procedure: as §3
# [8] = tested on: SK-N-BE(2)c cells; experiment: TUNEL apoptosis assay, SK-N-BE(2)c; format: cell-based, human; settings: 40 µM, 48 h, six fields
# Procedure: as §1
# [9] = tested on: non-malignant 7SM0032 cells; experiment: TUNEL apoptosis assay, 7SM0032; format: cell-based, human; settings: 7SM0032, same treatment (40 µM, 48 h), vs NB cells
# Procedure: as §1
# [10] = tested on: ãH2A.X foci; experiment: γH2A.X foci immunofluorescence after γ-irradiation; format: cell-based; settings: 30 µM peptide, 2 h pretreatment, 5 Gy; five fields; vs R9-srbPep
# Procedure: To study DNA damage and repair, attached cells were pretreated with the peptides for 2 h and were then ã-irradiated (5 Gy). After irradiation, cells were cultured in the presence of the peptides for the indicated time. For analyzing ãH2A.X foci formation, cells were fixed in a solution of methanol and acetone (70%:30% v/v) for 15 min at −20°C. The slides were air-dried for storage and rehydrated in PBS prior to immunostaining. Cells were stained by a mouse monoclonal antibody specific to ãH2A.X (Millipore, Billerica, MA) followed by an Alexa Fluor 488 conjugated anti-mouse IgG antibody. For analyzing Rad51 foci formation, cells were fixed in PBS buffered 4% paraformaldehyde at room temperature for 15 min. After being washed twice by PBS, cells were permeabilized in PBS containing 0.5% triton for 15 min on ice. The fixed and permeabilized cells were stained with a rabbit polyclonal antibody raised against the human Rad51 (Santa Cruz) followed by an Alexa Fluor 488 conjugated anti-rabbit IgG antibody. Stained cells were visualized and imaged by a confocal microscope.
# [11] = tested on: EJ-mediated DSB repair, U2OS-derived EJ5-GFP cells; experiment: DSB repair reporter assay, EJ (EJ5-GFP); format: cell-based; settings: 30 µM, GFP-positive cells 3 d after I-SceI transfection, normalized to R9-srbPep, triplicates
# Procedure: (§4) The plasmid pCBASce expresses the rare cutting I-SceI meganuclease. The U2OS-derived cell lines, DR-GFP, EJ5-GFP, and SA-GFP contain a stably transfected reporter gene for DSB repair mediated by HR, end joining (EJ), and single-strand annealing (SSA), respectively. These cell lines were cultured in DMEM medium with 10% FBS at 37°C in the presence of 5% CO2.
# (§5) DR-GFP, EJ5-GFP, and SA-GFP cell lines were seeded at 2.5×10^4 cells/cm^2 in a 12-well plate. Once attached overnight, cells were transfected with 1.2 µg of the pCBASce I-SceI expression plasmid mixed with 3.6 µl of Lipofectamine 2000 (Invitrogen) in 200 µl of Optimem media (Invitrogen). After incubation for 3 h, the media containing transfection complexes was aspirated and replaced with fresh media containing 30 µM of the peptides. The HR, EJ, and SSA-mediated DSB repair, indicated by the restoration of a functional GFP gene in the respective cell lines, were quantified by measuring the relative abundance of GFP-positive cells by flow cytometry 3 d after transfection.
# [12] = tested on: SSA-mediated DSB repair, U2OS-derived SA-GFP cells; experiment: DSB repair reporter assay, SSA (SA-GFP); format: cell-based; settings: 30 µM, GFP-positive cells 3 d after I-SceI transfection, normalized to R9-srbPep, triplicates
# Procedure: as §4, §5
smiles,measurement,setting,value
CC[C@H](C)[C@H](NC(=O)CNC(=O)[C@H](CC(C)C)NC(=O)[C@H](CS)NC(=O)[C@H](CS)NC(=O)[C@@H](CCCNC(=N)N)NC(=O)[C@@H](CCCNC(=N)N)NC(=O)[C@@H](CCCNC(=N)N)NC(=O)[C@@H](CCCNC(=N)N)NC(=O)[C@@H](CCCNC(=N)N)NC(=O)[C@@H](CCCNC(=N)N)NC(=O)[C@@H](CCCNC(=N)N)NC(=O)[C@@H](CCCNC(=N)N)NC(=O)[C@H](N)CCCNC(=N)N)C(=O)N1CCC[C@H]1C(=O)N[C@@H](CCC(=O)O)C(=O)N[C@@H](CCC(N)=O)C(=O)N[C@@H](CCC(=O)O)C(=O)N[C@@H](Cc1ccc(O)cc1)C(=O)O [R9-caPep] (H-[dR][dR][dR][dR][dR][dR][dR][dR][dR]CCLGIPEQEY-OH; N-terminus and C-terminus assumed),effect on PCNA and p21 interaction,[1],did not block PCNA and p21 interaction in vitro
same,IC50,[2],10 to 32 µM
same,sensitivity of MYCN-amplified vs. non-amplified NB cell lines,[2]; CellTiter-Glo,NB cell lines with MYCN amplification were uniformly more sensitive to R9-caPep than NB cell lines without MYCN amplification
same,"toxicity to breast, lung, and pancreatic cancer cell lines vs non-malignant lines",[3],"selectively toxic to breast, lung, and pancreatic cancer cell lines"
same,FEN1 co-localization with PCNA foci,[4],didn't appear to overlap the PCNA foci
same,cell cycle progress within 6 h,[5],neither peptide significantly affected cell cycle progress within 6 h
same,intracellular LIGI or FEN1 level,[6],didn't affect intracellular LIGI or FEN1 level
same,effect on cell cycle progression in non-malignant cells,[7],significantly less effect on cell cycle progression and cell survival
same,apoptosis: TUNEL positivity,[8],increased TUNEL positivity
same,effect on cell survival in non-malignant cells,[9],significantly less effect on cell cycle progression and cell survival
same,resolution of ãH2A.X foci,[10],delayed the resolution of ãH2A.X foci induced by ã-irradiation
same,EJ-mediated DNA repair,[11],only small effects on EJ or SSA; also recorded: little effect on the EJ pathway
same,SSA-mediated DNA repair,[12],only small effects on EJ or SSA; also recorded: slightly enhances DNA repair through SSA
